Reference: patent US6531505B2, “Immunosuppressive agents” (priority 1998, dated 2003)
“Also recorded” adds a separate entry of the source.

Key:
[1] = test system: CCl4-induced liver injury in mice; experiment: Hepatoprotection studies on CCl4-induced liver injury in mice; type: in vivo, ICR male mice; details: for ALT / AST: serum, 20 hours after CCl4
Procedure: ICR male mice (8 mice for each group) were used. Astilbin (50 or 100 mg/kg) and RSG ext (100 or 200 mg/kg) were administered orally for 6 days. One hour after final administration, mice were intraperitoneally injected with 0.2% CCl4 in olive oil (0.2 ml/20 g of body weight).
For the control studies, only CCl4 injected mice without drug administration were used.
Then, 20 hours after administration of CCl4, the blood samples were collected, and used for determining the serum ALT and the serum AST activities by the conventional methods.

[2] = test system: total NPC isolated from liver injury mice; experiment: Apoptosis measurement No. 1, counting of apoptotic cells (Hoechst 33342); type: cell-based; details: 5×10^−5 g/ml, 1 hour, 37° C., NPC from liver injury mice 12 hours after elicitation, FIG. 1
Procedure: (§1) HC and NPC isolated from liver injury mice 12 hours after elicitation, and fraction of adherent cells and non-adherent cells isolated from NPC were used. These cells were incubated with 5×10^−5 g/ml of astilbin and RSG ext, as the testing compounds, in RPMI 1640 medium at 37° C. for 1 hour, respectively. After incubation, the cells were stained with Hoechst 33342 (Molecular Probes, Inc., USA) for 1 minute at room temperature. After washed three times with RPMI 1640 medium, the obtained cells were fixed with 2% formaldehyde in phosphate buffer solution (PBS). The apoptotic cells among the total population were determined by counting a total of 200 cells in five different fields under fluorescent microscope. For the control studies, the cells treated without test compounds were incubated and followed by the same manner.

[3] = test system: adherent cells isolated from NPC; experiment: as above; type: cell-based, mice; details: 5×10^−5 g/ml, 1 hour, 37° C., FIG. 1
Procedure: as §1, with “Additionally, a part of NPC was incubated on the culture plate for 3 hours in order to separate adherent cells from non-adherent cells. […] HC” for “HC”

[4] = test system: non-adherent cells isolated from NPC; experiment: as above; type: cell-based, mice; details: 5×10^−5 g/ml, 1 hour, 37° C., FIG. 1
Procedure: as §1, with “Additionally, a part of NPC was incubated on the culture plate for 3 hours in order to separate adherent cells from non-adherent cells. […] HC” for “HC”

[5] = test system: NPC isolated from liver injury mice; experiment: Apoptosis measurement No. 2, DNA fragmentation assay (gel agarose electrophoresis); type: cell-based; details: 5×10^−5 g/ml, 1 hour, NPC from liver injury mice 12 hours after elicitation
[6] = test system: NPC and spleen cells isolated from normal mice; experiment: as above; type: cell-based; details: 5×10^−5 g/ml, 1 hour
[7] = test system: NPC isolated from liver injury mice; experiment: ALT-releasing assay, co-culture of HC with pre-treated NPC; type: cell-based; details: for ALT activity in supernatants of HC co-cultured with pre-treated NPC: Example 5 Experiment 2, NPC incubated with test compound 1 hour, co-culture 3 hours, FIG. 6
Procedure: HC and NPC were isolated from mice 12 hours after elicitation of liver injury. Thus obtained HC was suspended in WE medium, and was seeded onto 96-wells microplates (2×10^4 cells/0.2 ml/wells), and incubated at 37° C. for 5 hours with 5% (v/v) CO2 in air. After incubation, the HC was washed twice with WE medium and co-cultured with NPC of 8×10^4 cells for 3 hours. NPC was pre-incubated for 1 hour at 37° C. with various concentration of astilbin or RSG ext. After co-culture, the supernatants were collected for assaying ALT and AST activities by the conventional methods.
HC and NPC were isolated from liver injury mice 12 hours after elicitation, as the same manner described in Experiment 4. Thus the HC was suspended in WE medium, and was seeded onto 96-wells microplates (2×10^4 cells/0.2 ml/wells), and incubated at 37° C. for 5 hours with 5% (v/v) CO2 in air. After incubation, the HC was washed twice with WE medium and co-cultured with NPC of 8×10^4 cells, which were pre-treated with 5×10^−5 g/ml of astilbin or RSG ext for 5, 15, 30, 60 and 120 minutes respectively, at 37° C. for 3 hours. After co-culture, the supernatants were collected for assaying the ALT activity by the conventional methods.
HC (2×10^4 cells/0.2 ml/wells in WE medium) were seeded onto 96-well microplates and incubated at 37° C. with 5% (v/v) CO2 in air.
On the other hand, NPC was incubated in the medium with or without test compounds for 1 hour. The test compounds were smitilbin of the formula (I-a), astilbin of the formula (I-b), engeletin of the formula (I-c), and eucryphin of formula (I-d), respectively.
After 5 hours of the incubation, each monolayers of HC were washed twice with the medium, and then 8×10^4 cells of NPC, pre-treated with or without above test compounds, were added. After 3 hours of further incubation, the supernatants were collected and used for assaying the ALT activity by the conventional methods.

[8] = test system: HC isolated from liver injury mice; experiment: ALT-releasing assay, co-culture of NPC with pre-treated HC; type: cell-based; details: HC pre-treated with high concentration for more than 2 hours
Procedure: HC in WE medium was incubated with or without test compounds for 1 hour. Then, the HC was seeded onto 96-well microplates (2×10^4 cells/0.2 ml/wells) and incubated at 37° C. with 5% (v/v) CO2 in air for 5 hours. After 5 hours, HC monolayers were washed twice with the medium, and then 8×10^4 cells of NPC were added. […] The test compounds were the same ones as described in Experiment 2, above.

[9] = test system: mice with liver injury induced by delayed-type hypersensitivity (DTH) reaction; experiment: Studies for drug administration time (induction phase and effector phase); type: in vivo; details: for histopathological examination of liver (inflammatory infiltration, hepatocellular coagulation necrosis): 18 hours after injection of picryl chloride into liver; for serum ALT activity: FIG. 5
Procedure: The liver injury was induced by the same manner as described in Experiment 1. To determine the effects of astilbin and RSG ext on the induction phase (during sensitization) and effector phase (after elicitation of liver injury), astilbin (50 and 100 mg/kg) and RSG ext (100 and 200 mg/kg) were administered orally to the mice for once a day after 10 days from the 1st sensitization, and for 3 times at 0, 5 and 10 hours after elicitation, respectively.
For the control studies, mice without drug administration were used, and for the positive control studies, 10 mg/kg cyclophosphamide (Cy) was administered percutaneously to the mice.
18 hours after the injection of picryl chloride into liver, the blood samples were collected for determining the serum ALT activity by the conventional methods. Histopathological examination of liver was also performed.

[10] = test system: HC isolated from normal mice, treated with CCl4; experiment: Hepatoprotection studies on CCl4-induced hepatocyte damage; type: cell-based; details: 5×10^−6 to 1×10^−4 g/ml, HC treated 2 hours, then 0.2% CCl4 1 hour
Procedure: HC was isolated from the normal mice used in Experiment 8 above. The cells were treated for 2 hours with astilbin or RSG ext, then washed twice with WE medium solution. After washing, 0.1 ml of 0.2% CCl4 in olive oil was added to the cells, and the resulting cells were incubated for 1 hour. The ALT activity in the supernatants was determined by the conventional methods.
HC isolated from the normal mice was used. The cells were treated for 2 hours with test compounds. After treatment, the cells were washed twice, and incubated for 1 hour after addition of 0.1 ml of 0.2% CCl4. The obtained supernatants were collected for assaying the ALT activity by the conventional methods. For the control studies, non-treated HC with test compounds were used.

[11] = NPC pre-incubated 1 hour with various concentrations, co-culture with HC 3 hours, FIG. 2
[12] = dose 50 mg/kg orally for 6 days
[13] = dose 100 mg/kg orally for 6 days

COC(=O)c1cc(OC)c2c(c1-c1c(C(=O)OC)cc(OC)c3c1OCO3)OCO2 [BDD, biphenyl dimethyl dicarboxylate, reference compound]
ALT elevation ([1]; 150 mg/kg orally, positive control): significantly decreased | ALT ([1]; dose 150 mg/kg orally): 510.7 ± 27.0 Karmen unit | AST ([1]; dose 150 mg/kg orally): 675.6 ± 80.9 Karmen unit

C[C@@H]1O[C@@H](O[C@H]2C(=O)c3c(O)cc(O)cc3O[C@@H]2c2ccc(O)c(O)c2)[C@H](O)[C@H](O)[C@H]1O [astilbin]
ratio of apoptotic cells in total NPC [2]: significantly increased | ratio of apoptotic cells in the fraction of adherent cells of NPC [3]: no influence | ratio of apoptotic cells in non-adherent fraction isolated from NPC [4]: increased | DNA ladder pattern (DNA fragmentation) [5]: DNA ladder' pattern appeared | DNA ladder pattern (DNA fragmentation) [6]: no DNA ladder' pattern appeared | ALT release ([7]; 5×10^−5 g/ml, NPC pre-incubated 1 hour, co-culture with HC 3 hours): complete inhibition | ALT releasing ([7]; 5×10^−5 g/ml, pre-treatment of NPC for more than 30 minutes): completely inhibited | ALT activity in supernatants of HC co-cultured with pre-treated NPC [7]: dose-dependently inhibited | ALT releasing activity of NPC [7, 11]: dose-dependently inhibited; also recorded: stronger activity than RSG ext | AST releasing activity of NPC [7, 11]: dose-dependently inhibited | releasing of ALT from HC ([7]; NPC pre-treated with 5×10^−5 g/ml for 5, 15, 30, 60 and 120 minutes, FIG. 3): inhibited time-dependently | ALT releasing [8]: not changed | histopathological examination of liver (inflammatory infiltration, hepatocellular coagulation necrosis) [9]: improvement of liver injury | serum ALT activity ([9]; high dose (astilbin 100 mg/kg, RSG ext 200 mg/kg) orally in effector phase, 3 times at 0, 5 and 10 hours after elicitation, blood 18 hours after): significant decrease | serum ALT activity ([9]; low dose (astilbin 50 mg/kg, RSG ext 100 mg/kg) orally in effector phase): tendency of decreasing | effect on elevation of ALT and AST activities ([1]; astilbin 50 or 100 mg/kg, RSG ext 100 or 200 mg/kg orally for 6 days before CCl4): no effect | ALT [1, 12]: 901.6 ± 36.1 Karmen unit | AST [1, 12]: 670.4 ± 21.2 Karmen unit | ALT [1, 13]: 921.5 ± 40.2 Karmen unit | AST [1, 13]: 688.2 ± 45.6 Karmen unit | ALT release from HC treated with CCl4 [10]: None of the test compounds | ALT release from HC treated with CCl4 ([10]; listed as Astilbin): did not affect

O=P1(N(CCCl)CCCl)NCCCO1 (stereo not drawn) [cyclophosphamide, reference compound]
serum ALT activity ([9]; 10 mg/kg, given in both induction and effector phases, positive control): significant decrease | histopathological examination of liver (inflammatory infiltration, hepatocellular coagulation necrosis) [9]: improvement of liver injury

C[C@@H]1O[C@@H](O[C@H]2C(=O)c3c(O)cc(O)cc3O[C@@H]2c2ccc(O)cc2)[C@H](O)[C@H](O)[C@H]1O [engeletin]
ALT activity in supernatants of HC co-cultured with pre-treated NPC [7]: dose-dependently inhibited | ALT release from HC treated with CCl4 [10]: None of the test compounds

C[C@@H]1O[C@@H](Oc2coc3cc(O)cc(O)c3c2=O)[C@H](O)[C@H](O)[C@H]1O [eucryphin]
ALT activity in supernatants of HC co-cultured with pre-treated NPC [7]: much stronger inhibitory effect | ALT release from HC treated with CCl4 [10]: None of the test compounds

C[C@@H]1O[C@@H](O[C@@H]2C(=O)c3c(O)cc(O)cc3OC2c2cc(O)cc(O)c2)[C@H](O)[C@H](O)[C@H]1O (stereo partly drawn) [smitilbin]
ALT activity in supernatants of HC co-cultured with pre-treated NPC [7]: dose-dependently inhibited | ALT release from HC treated with CCl4 [10]: None of the test compounds
